PubChem BioAssay (NCI)
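Results reflect a 48-hour exposure of cells in 96-well plates to compound at five concentrations. Abbreviation: GI50, concentration required for 50% inhibition of growth. At the TGI there is no net growth.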

Experiments:
Test in all cases: growth of human tumour cells (NCI), 48 h
A549 NSCLC = tested on: A549 NSCLC
CAKI-1 renal = tested on: CAKI-1 renal
EKVX NSCLC = tested on: EKVX NSCLC
HCC-2998 colon = tested on: HCC-2998 colon
HCT-15 colon = tested on: HCT-15 colon
NCI-H226 lung = tested on: NCI-H226 lung
NCI-H522 lung = tested on: NCI-H522 lung
RPMI-8226 leukemia = tested on: RPMI-8226 leukemia
SNB-19 CNS = tested on: SNB-19 CNS
SNB-75 CNS = tested on: SNB-75 CNS

Row | Compound | TGI (A549 NSCLC) | TGI (CAKI-1 renal) | TGI (EKVX NSCLC) | TGI (HCC-2998 colon) | TGI (HCT-15 colon) | TGI (NCI-H226 lung) | TGI (NCI-H522 lung) | TGI (RPMI-8226 leukemia) | TGI (SNB-19 CNS) | TGI (SNB-75 CNS) | GI50 (EKVX NSCLC) | GI50 (NCI-H522 lung) | GI50 (SNB-75 CNS)
1 | O=c1[nH]nc(-c2ccccc2)n1/N=C/c1ccncc1 | > 100 µM | > 100 µM | > 100 µM | > 100 µM | > 100 µM | > 100 µM | > 100 µM | > 100 µM | > 100 µM | > 100 µM |  |  | 
2 | COC(=O)C1=C(C)NC2(O)C=CC(=O)C3C(=O)N(c4ccccc4)C(=O)C132 (stereo not drawn) | > 100 µM | > 100 µM | > 100 µM | > 100 µM | > 100 µM | > 100 µM | > 100 µM | > 100 µM | > 100 µM | > 100 µM |  |  | 
3 | CCOC(=O)c1c(Br)c(-c2ccc(Br)cc2)c(Br)n1C | > 100 µM | 75.2 µM | 74.2 µM | 42.1 µM | 73 µM | 49.4 µM | 44.5 µM | 42.3 µM | > 100 µM | 49.7 µM | 20.3 µM | 11.2 µM | 5.3 µM
4 | C=C1C(=O)OC2(C)C3CCC(C3)C12 (stereo not drawn) | > 100 µM | 99.4 µM | > 100 µM | > 100 µM | > 100 µM | > 100 µM | 85.8 µM | > 100 µM | > 100 µM | > 100 µM |  |  | 
5 | NC(=O)c1nnc2cc(F)ccc2c1N | > 100 µM | > 100 µM | > 100 µM | > 100 µM | > 100 µM | > 100 µM | > 100 µM | > 100 µM | > 100 µM | > 100 µM |  |  | 
6 | CNc1ccc(-c2nc3cc(C)ccc3o2)cc1 | > 100 µM | > 100 µM | > 100 µM | > 100 µM | > 100 µM | > 100 µM | > 100 µM | > 100 µM | > 100 µM | 33.7 µM |  |  | 
7 | CCOC(=O)/C(=C\c1ccc(N(C)C)cc1)S(=O)(=O)C(F)(F)C(F)(F)C(F)(F)C(F)(F)F | > 100 µM | > 100 µM | > 100 µM | > 100 µM | > 100 µM | > 100 µM | > 100 µM | > 100 µM | > 100 µM | > 100 µM |  |  | 
8 | COc1ccc(O[C@H](COCc2ccccc2)C[C@@H]2COC(C)(C)O2)cc1 | > 100 µM | > 100 µM | > 100 µM | > 100 µM | > 100 µM | > 100 µM | > 100 µM | > 100 µM | > 100 µM | > 100 µM |  |  | 
9 | COc1ccc2cc1Oc1ccc(cc1)C(Sc1ccccc1)CCOC(=O)CC2 (stereo not drawn) | > 100 µM | > 100 µM | > 100 µM | > 100 µM | > 100 µM | > 100 µM | > 100 µM | > 100 µM | > 100 µM | > 100 µM |  |  | 
